Reference: US20250163052A1, “cGAS INHIBITORS AND USES THEREOF” (Cornell University, priority 2022, published 2025)

Columns and labels:
THP1 cells = test: THP1-Dual cells, cell viability (CellTiter-Glo); type: cell-based
Protocol: (§1) Evaluation of active cGAS inhibitors in THP1 cells (Table 3). Cellular activity of all compounds (in Table 3) was determined using THP1-Dual™ cells as described (Lama et. al., 2019). THP1-Dual™ cells (Invivogen) (50000 cells in 100 μl media) were seeded into each well of a 96-well plate and treated with compounds at various dilution for 4 hours. Subsequently, cells were transfected with DNA (2 ug/ml) and lipofectamine and incubate the cells were incubated overnight. Ifnb expression was measured in cell supernatant using Quantiluc, nfkb expression was determined using Quantiblue, and cell viability using Promega® CellTiter-Glo®.

m-cGAS = m-cGAS (Mus musculus, UniProt Q8C6L5); test: Cell-free mouse cGAS enzyme inhibition assay (ATP depletion, Kinase-Glo Max); type: biochemical; details: 1 h; read-out: m-cGAS, conc. 10 μM
Chain of m-cGAS (Q8C6L5 whole entry): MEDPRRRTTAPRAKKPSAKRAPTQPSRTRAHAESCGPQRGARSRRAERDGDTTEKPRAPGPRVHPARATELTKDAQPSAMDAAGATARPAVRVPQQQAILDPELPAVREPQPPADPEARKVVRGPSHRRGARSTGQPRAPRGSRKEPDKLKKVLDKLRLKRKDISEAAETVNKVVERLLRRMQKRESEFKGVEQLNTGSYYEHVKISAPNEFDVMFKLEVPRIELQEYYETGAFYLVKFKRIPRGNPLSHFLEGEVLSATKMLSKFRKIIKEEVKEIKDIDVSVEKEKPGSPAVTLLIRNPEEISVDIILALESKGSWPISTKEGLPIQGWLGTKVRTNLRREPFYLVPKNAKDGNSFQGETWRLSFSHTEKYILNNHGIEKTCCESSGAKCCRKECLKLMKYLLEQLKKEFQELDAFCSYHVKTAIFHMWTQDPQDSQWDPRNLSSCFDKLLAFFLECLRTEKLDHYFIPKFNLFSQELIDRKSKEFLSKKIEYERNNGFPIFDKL
Protocol: (§2) Cell-free mouse and human cGAS enzyme inhibition assay (Table 2). Activity of all compounds (in Table 1) against m-cGAS (30 nM) and or h-cGAS, (100 nM) was determined by measuring the conversion of ATP and GTP (100 μM each) to cGAMP in the presence of dsDNA (5 ug/mL) in a reaction buffer composed of Tris-HCl (20 mM, pH7.4), NaCl (150 mM), MnCl2 (0.2 mM, h-cGAS) or MgCl2 (5 mM, m-cGAS) and Tween-20 (0.01%), and the remaining ATP concentration using Kinase-Glo®Max Luminescent Kinase Assay (Promega, Madison, WI), as described (Lama, et. al., 2019). Briefly, 10 μl of a master mix of 0.4 mM ATP, 0.4 mM GTP, 0.02 mg/mL dsDNA in the reaction buffer supplemented with 2 mM DTT was added to reaction wells containing TDI-6570 or TDI-8246 (2× of the desired concentration) in the same buffer ([…]) using a Thermo 8-channel Multidrop Combi dispenser. Next, 10 μl of a 4×m-cGAS (0.120 μM) or h-cGAS (0.4 μM) solution in the reaction buffer supplemented with 2 mM DTT was added to appropriate wells. Similar sets of reactions without cGAS or the inhibitor was set by adding the buffer alone. The reactions with the plates sealed were incubated at 37° C. (1 hour for m-cGAS and 3 hours for h-cGAS) and stopped by addition of 40 μl of the Kinase-Glo®Max. The luminescence was recorded in relative light units (RLUs) using a Biotek Synergy H1 Hybrid plate reader (BioTek, Winooski, VT). […] All reactions were run in triplicates and calculated using GraphPad Prism 9. The values represent mean IC50±S.D.

h-cGAS = h-cGAS (Homo sapiens, UniProt Q8N884); test: Cell-free human cGAS enzyme inhibition assay (ATP depletion, Kinase-Glo Max); type: biochemical; details: 3 h; for inhibition at 1 µM: read-out: h-cGAS, conc. 1 μM; for inhibition at 10 µM: read-out: h-cGAS, conc. 10 μM
Chain of h-cGAS (Q8N884 whole entry): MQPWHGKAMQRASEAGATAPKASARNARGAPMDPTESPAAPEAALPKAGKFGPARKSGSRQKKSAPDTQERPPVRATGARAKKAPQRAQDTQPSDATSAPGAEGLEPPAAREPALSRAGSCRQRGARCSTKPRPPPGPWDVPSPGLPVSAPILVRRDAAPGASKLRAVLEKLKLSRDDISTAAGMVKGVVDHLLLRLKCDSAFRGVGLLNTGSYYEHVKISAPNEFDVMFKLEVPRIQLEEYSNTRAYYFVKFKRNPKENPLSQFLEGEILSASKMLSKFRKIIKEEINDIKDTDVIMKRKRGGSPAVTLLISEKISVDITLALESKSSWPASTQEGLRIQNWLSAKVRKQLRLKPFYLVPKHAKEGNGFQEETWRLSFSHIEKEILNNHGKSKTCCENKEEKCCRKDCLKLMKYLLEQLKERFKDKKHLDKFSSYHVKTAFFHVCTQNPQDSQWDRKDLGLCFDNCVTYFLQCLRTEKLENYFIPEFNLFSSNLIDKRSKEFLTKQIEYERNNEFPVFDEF
Protocol: as §2

IFNB = test: THP1-Dual cells transfected with DNA, Ifnb expression (Quantiluc); type: cell-based; details: Homo sapiens; for inhibition at 10 µM: THP-1, 10 μM; for inhibition at 30 µM: THP-1, 30 μM
Protocol: as §1

NFkB-SEAP = test: THP1-Dual cells transfected with DNA, nfkb expression (Quantiblue); type: cell-based; details: Homo sapiens; for inhibition at 10 µM: THP-1, 10 μM; for inhibition at 30 µM: THP-1, 30 μM
Protocol: as §1

| inhibition at 10 µM (m-cGAS) [%] | inhibition at 1 µM (h-cGAS) [%] | inhibition at 10 µM (h-cGAS) [%] | Compound | Cell viability 10 μM (THP1 cells) | Cell viability 30 μM (THP1 cells) | inhibition at 10 µM (IFNB) [%] | inhibition at 30 µM (IFNB) [%] | inhibition at 10 µM (NFkB-SEAP) [%] | inhibition at 30 µM (NFkB-SEAP) [%] |
| --- | --- | --- | --- | --- | --- | --- | --- | --- | --- |
| 0 to 24 | 50 to 74 | 75 to 100 | Cn1c2c(c3c(-c4cncnc4)cc(Cl)c(Cl)c31)CN(C(=O)CN)CC2 [Compound 8] | +++ (+, ++, and +++ mean the compound respectively shows 25-49%; 50-74%; or 75-100% viability to cells) | − (Cell viability <24%, in THP1 cells is expressed as “−”) | 50 to 74 | 75 to 100 | 25 to 49 | 50 to 74 |
| 0 to 24 | 50 to 74 | 75 to 100 | CN1c2c(Cl)c(Cl)cc(-c3cncnc3)c2C2CN(C(=O)CN)CCC21 (stereo not shown) [Compound 9] | +++ (+, ++, and +++ mean the compound respectively shows 25-49%; 50-74%; or 75-100% viability to cells) | +++ (+, ++, and +++ mean the compound respectively shows 25-49%; 50-74%; or 75-100% viability to cells) | < 24 | < 24 | < 24 | < 24 |
| 0 to 24 | 0 to 24 | 75 to 100 | CN1c2c(Cl)c(Cl)cc(-c3cnn(C)c3)c2C2CN(C(=O)CN)CCC21 (stereo not shown) [Compound 12] | +++ (+, ++, and +++ mean the compound respectively shows 25-49%; 50-74%; or 75-100% viability to cells) |  | < 24 |  | < 24 |  |

Second part, the compound before the results:

| Compound | inhibition at 10 µM (m-cGAS) [%] | inhibition at 1 µM (h-cGAS) [%] | inhibition at 10 µM (h-cGAS) [%] | Cell viability 10 μM (THP1 cells) | Cell viability 30 μM (THP1 cells) | inhibition at 10 µM (IFNB) [%] | inhibition at 30 µM (IFNB) [%] | inhibition at 10 µM (NFkB-SEAP) [%] | inhibition at 30 µM (NFkB-SEAP) [%] |
| --- | --- | --- | --- | --- | --- | --- | --- | --- | --- |
| Cn1ccc(-c2cc(Cl)c(Cl)c3c2c2c(n3C)CCN(C(=O)C(C)(C)O)C2)n1 [Compound 5] | 0 to 24 | 25 to 49 | 75 to 100 | +++ (+, ++, and +++ mean the compound respectively shows 25-49%; 50-74%; or 75-100% viability to cells) | +++ (+, ++, and +++ mean the compound respectively shows 25-49%; 50-74%; or 75-100% viability to cells) | < 24 | < 24 | < 24 | < 24 |
| Cn1c2c(c3c(Br)cc(Cl)c(Cl)c31)CN(C(=O)CN)CC2 [Compound 6] | 75 to 100 | 0 to 24 | 75 to 100 | +++ (+, ++, and +++ mean the compound respectively shows 25-49%; 50-74%; or 75-100% viability to cells) | +++ (+, ++, and +++ mean the compound respectively shows 25-49%; 50-74%; or 75-100% viability to cells) | < 24 | < 24 | < 24 | 25 to 49 |
| Cn1cc(-c2cc(Cl)c(Cl)c3c2c2c(n3C)CCN(C(=O)CNC(=O)OC(C)(C)C)C2)cn1 [Compound 10] | 0 to 24 |  | 75 to 100 | +++ (+, ++, and +++ mean the compound respectively shows 25-49%; 50-74%; or 75-100% viability to cells) | +++ (+, ++, and +++ mean the compound respectively shows 25-49%; 50-74%; or 75-100% viability to cells) | < 24 | 75 to 100 | < 24 | 50 to 74 |
| Nc1ccc(-c2cc(Cl)c(Cl)c3[nH]c4c(c23)CN(C(=O)[C@@H]2CCCN2)CC4)cn1 [Compound 16] | 0 to 24 |  | 75 to 100 | +++ (+, ++, and +++ mean the compound respectively shows 25-49%; 50-74%; or 75-100% viability to cells) | + (+, ++, and +++ mean the compound respectively shows 25-49%; 50-74%; or 75-100% viability to cells) | 75 to 100 | 75 to 100 | 75 to 100 | 75 to 100 |
| Cn1c2c(c3c(-c4ccc(N)nc4)cc(Cl)c(Cl)c31)CN(C(=O)C1CCCN1)CC2 (stereo not shown) [Compound 17] | 0 to 24 | 25 to 49 | 75 to 100 | +++ (+, ++, and +++ mean the compound respectively shows 25-49%; 50-74%; or 75-100% viability to cells) | ++ (+, ++, and +++ mean the compound respectively shows 25-49%; 50-74%; or 75-100% viability to cells) | 25 to 49 | 75 to 100 | 25 to 49 | 75 to 100 |
